Source: patent US5106961A, “Erythromycin ring-contracted derivatives” (Eli Lilly and Company, priority 1989, dated 1992)
Values after ≈ are worked out from the molar mass of the structure shown. Where two headings read alike, the source gives them in different places.

Experiments:
Format in all cases: cell-based
[1] = tested on: Streptococcus faecalis X66; assay: Agar-dilution MIC, Streptococcus faecalis X66; settings: Enterococcus faecalis, read-out: minimal inhibitory concentration (MIC)
Excerpt: (§1) The compounds of formulas 1 and 2 inhibit the growth of certain pathogenic bacteria, especially Gram-positive bacteria and Gram-negative […] such as Haemophilus influenzae.

[2] = tested on: Staphylococcus aureus V41; assay: Agar-dilution MIC, Staphylococcus aureus V41; settings: Staphylococcus aureus V41, penicillin-resistant strain, read-out: minimal inhibitory concentration (MIC)
Excerpt: as §1

[3] = tested on: Staphylococcus aureus X1.1; assay: Agar-dilution MIC, Staphylococcus aureus X1.1
Excerpt: as §1

[4] = tested on: Haemophilus influenzae 76; assay: Agar-dilution MIC, Haemophilus influenzae 76; settings: Haemophilus influenzae 76, ampicillin-resistant strain, read-out: minimal inhibitory concentration (MIC)
Excerpt: as §1

[5] = tested on: Streptococcus pneumoniae Park I; assay: Agar-dilution MIC, Streptococcus pneumoniae Park I; settings: read-out: minimal inhibitory concentration (MIC)
Excerpt: as §1

[6] = tested on: Staphylococcus epidermidis 222; assay: Agar-dilution MIC, Staphylococcus epidermidis 222; settings: read-out: minimal inhibitory concentration (MIC)
Excerpt: as §1

[7] = tested on: Haemophilus influenzae C.L.; assay: Agar-dilution MIC, Haemophilus influenzae C.L.; settings: ampicillin-sensitive strain, read-out: minimal inhibitory concentration (MIC)
Excerpt: as §1

[8] = tested on: Streptococcus pyogenes C203; assay: Agar-dilution MIC, Streptococcus pyogenes C203; settings: read-out: minimal inhibitory concentration (MIC)
Excerpt: as §1

[9] = tested on: Streptococcus faecalis 2041; assay: Agar-dilution MIC, Streptococcus faecalis 2041; settings: Enterococcus faecalis, read-out: minimal inhibitory concentration (MIC)
Excerpt: as §1

[10] = tested on: Staphylococcus epidermidis 270; assay: Agar-dilution MIC, Staphylococcus epidermidis 270; settings: read-out: minimal inhibitory concentration (MIC)
Excerpt: as §1

[11] = Staphylococcus aureus X1.1, agar dilution, read-out: minimal inhibitory concentration (MIC)

MIC [1] [µg/mL]	MIC [2] [µg/mL]	MIC [3, 11] [µg/mL]	MIC [4] [µg/mL]	MIC [5] [µg/mL]	MIC [6] [µg/mL]	MIC [7] [µg/mL]	MIC [8] [µg/mL]	MIC [9] [µg/mL]	MIC [10] [µg/mL]	Structure (SMILES)	MIC ([3]; Staphylococcus aureus, X1.1, read-out: minimal inhibitory concentration (MIC)) [µg/mL]
64 (≈ 91.4 µM)	> 128	64 (≈ 91.4 µM)	128 (≈ 183 µM)	64 (≈ 91.4 µM)	64 (≈ 91.4 µM)	128 (≈ 183 µM)	64 (≈ 91.4 µM)	64 (≈ 91.4 µM)	64 (≈ 91.4 µM)	CC[C@@H](O)[C@H](C)[C@@H]1OC(=O)[C@H](C)[C@@H](O[C@H]2C[C@@](C)(OC)[C@@H](O)[C@H](C)O2)[C@H](C)[C@@H](O[C@@H]2O[C@H](C)C[C@H](N(C)C)[C@H]2O)[C@@]2(C)CC(C)=C(O2)[C@@H]1C [Compound 3a]	
64 (≈ 93 µM)	> 128	> 128	64 (≈ 93 µM)	32 (≈ 46.5 µM)	> 128	64 (≈ 93 µM)	128 (≈ 186 µM)	> 128	> 128	CO[C@]1(C)C[C@H](O[C@H]2[C@H](C)[C@@H](O[C@@H]3O[C@H](C)C[C@H](N(C)C)[C@H]3O)[C@@](C)(CC(C)=O)OC(=O)[C@H](C)[C@H](C(C)=O)OC(=O)[C@@H]2C)O[C@@H](C)[C@@H]1O [Compound 8]	
16 (≈ 24.4 µM)	> 128	> 128	16 (≈ 24.4 µM)	32 (≈ 48.8 µM)	> 128	16 (≈ 24.4 µM)	64 (≈ 97.6 µM)	128 (≈ 195 µM)	> 128	CO[C@]1(C)C[C@H](O[C@H]2[C@H](C)[C@@H](O[C@@H]3O[C@H](C)C[C@H](N(C)C)[C@H]3O)[C@@]3(C)CC(C)=C(O3)[C@H](C)[C@H](C(C)=O)OC(=O)[C@@H]2C)O[C@@H](C)[C@@H]1O [Compound 4]	
64 (≈ 89.4 µM)	> 128	> 128	32 (≈ 44.7 µM)	16 (≈ 22.3 µM)	> 128	32 (≈ 44.7 µM)	32 (≈ 44.7 µM)	> 128	> 128	CC[C@@H](O)[C@@](C)(O)[C@@H]1OC(=O)[C@H](C)[C@@H](O[C@H]2C[C@@](C)(OC)[C@@H](O)[C@H](C)O2)[C@H](C)[C@@H](O[C@@H]2O[C@H](C)C[C@H](N(C)C)[C@H]2O)[C@@]2(C)CC(C)=C(O2)[C@@H]1C [Compound 3]	

Structure (SMILES)	MIC [1] [µg/mL]	MIC [2] [µg/mL]	MIC [3, 11] [µg/mL]	MIC [4] [µg/mL]	MIC [5] [µg/mL]	MIC [6] [µg/mL]	MIC [7] [µg/mL]	MIC [8] [µg/mL]	MIC [9] [µg/mL]	MIC [10] [µg/mL]	MIC ([3]; Staphylococcus aureus, X1.1, read-out: minimal inhibitory concentration (MIC)) [µg/mL]
CC[C@@H](O)[C@@](C)(O)[C@@H]1OC(=O)[C@H](C)[C@@H](O[C@H]2C[C@@](C)(OC)[C@@H](O)[C@H](C)O2)[C@H](C)[C@@H](O[C@@H]2O[C@H](C)C[C@H](N(C)C)[C@H]2O)[C@@]2(C)CC(C)(O)C(O)(O2)[C@@H]1C (some centres unmarked) [Compound 6]	16 (≈ 21.3 µM)	> 128		8 (≈ 10.7 µM)	8 (≈ 10.7 µM)	64 (≈ 85.3 µM)	8 (≈ 10.7 µM)	16 (≈ 21.3 µM)	64 (≈ 85.3 µM)	> 128	128 (≈ 171 µM)
